86 compounds from PMC8041284, “Tunable Methacrylamides for Covalent Ligand Directed Release Chemistry” (Journal of the American Chemical Society, 2021) can be followed below.

The assay concerns the target BTK (Homo sapiens, UniProt Q06187). Nature of the assay: biochemical. Particulars: read-out: BTK inhibition (%), 0.75 uM BTK, […] probe 3l, 15 min preincubation.

The structures appear in SMILES notation.

BTK, sequence (Q06187 402-655 limits assumed): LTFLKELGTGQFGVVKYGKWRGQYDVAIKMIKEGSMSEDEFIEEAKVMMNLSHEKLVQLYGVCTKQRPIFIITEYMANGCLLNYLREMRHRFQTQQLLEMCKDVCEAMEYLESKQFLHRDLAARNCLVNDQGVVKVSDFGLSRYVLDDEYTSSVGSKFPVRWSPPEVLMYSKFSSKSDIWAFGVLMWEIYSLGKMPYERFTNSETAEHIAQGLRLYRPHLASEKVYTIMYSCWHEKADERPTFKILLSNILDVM

On to `COc1ccc2cc([C@H](C)C(=O)O)ccc2c1` [PCM-0000233], for which the inhibition at 10 µM was -13.1%.

In the case of `c1coc(CNc2ncnc3nc[nH]c23)c1` [PCM-0000462], the inhibition at 10 µM was found to be 10.9%.

On to `COc1ccc(Cl)cc1C(=O)NCCc1ccc(S(=O)(=O)NC(=O)NC2CCCCC2)cc1` [PCM-0003840], for which the inhibition at 10 µM is -65.4%.

Take `O=C(Oc1cc(S(=O)(=O)c2ccccc2)ccc1[N+](=O)[O-])c1ccc(Cl)cc1` [PCM-0004196]: the inhibition at 10 µM is -3.1%.

In the case of `C=C[C@H]1CN2CC[C@H]1C[C@H]2[C@H](O)c1ccnc2ccc(OC)cc12` [PCM-0004959], the inhibition at 10 µM is -22.6%.

With `Cc1c(Cl)cccc1Nc1ccccc1C(=O)O` [PCM-0005612], the inhibition at 10 µM is -6.2%.

Turning to `CC1=NN(c2ccccc2)C(=O)C1` [PCM-0006147], the inhibition at 10 µM came out at 6.2%.

As to `O=C(/C=C/C=C/c1ccc2c(c1)OCO2)N1CCCCC1` [PCM-0006645], the inhibition at 10 µM was -14%.

Consider `O=C(NCCS(=O)(=O)c1ccc(C(F)(F)F)cn1)c1ccc(Cl)cc1` [PCM-0007384], for which the inhibition at 10 µM is 16.6%.

Consider `Cc1cccc(N(C)C(=S)Oc2ccc3ccccc3c2)c1` [PCM-0007505], for which the inhibition at 10 µM was determined as 4.7%.

As to `CC1=CC(=O)c2ccccc2C1=O` [PCM-0009823], the inhibition at 10 µM is -3.1%.

For `O=C(Nc1ccccc1)N1CCN(c2nc(-c3ccccc3)ns2)CC1` [PCM-0010620], the inhibition at 10 µM is -3.9%.

With `Cc1cc(=O)oc2cc(O)ccc12` [PCM-0011565], the inhibition at 10 µM was -2.3%.

Consider `COc1cc2ncnc(Nc3cccc(Cl)c3)c2cc1OC` [PCM-0012125], for which the inhibition at 10 µM came to 21.4%.

Take `O=C1c2ccccc2-c2n[nH]c3cccc1c23` [PCM-0012406]: the inhibition at 10 µM came to 18.6%.

As for `CC(N)C12CC3CC(CC(C3)C1)C2` (centres unmarked) [PCM-0012697], the inhibition at 10 µM stood at 3.1%.

On to `CCn1cc(C(=O)O)c(=O)c2ccc(C)nc21` [PCM-0012961], for which the inhibition at 10 µM is 5.4%.

In the case of `CC(=O)N[C@@H](CS)C(=O)O` [PCM-0064400], the inhibition at 10 µM worked out at 5.5%.

`NCCCCCC(=O)O` [PCM-0064402]: the inhibition at 10 µM was -2.3%.

As to `CN(C)c1nc(N(C)C)nc(N(C)C)n1` [PCM-0064404], the inhibition at 10 µM was found to be 15.9%.

Consider `NC12CC3CC(CC(C3)C1)C2` [PCM-0064405], for which the inhibition at 10 µM was -14.8%.

On to `CCCCNc1cc(C(=O)O)cc(S(N)(=O)=O)c1Oc1ccccc1` [PCM-0064421], for which the inhibition at 10 µM was -6.2%.

Turning to `CC(NC(C)(C)C)C(=O)c1cccc(Cl)c1` (centres unmarked) [PCM-0064429], the inhibition at 10 µM is -3.9%.

For `CN1CCC(=C2c3ccccc3C=Cc3ccccc32)CC1` [PCM-0064430], the inhibition at 10 µM was -9.3%.

For `CC(C)(Oc1ccc(C2CC2(Cl)Cl)cc1)C(=O)O` (centres unmarked) [PCM-0064433], the inhibition at 10 µM is -14%.

For `CN(C)CCCN1c2ccccc2Sc2ccc(Cl)cc21` [PCM-0064436], the inhibition at 10 µM is -16.3%.

As to `Cn1c(=O)c2[nH]cnc2n(C)c1=O` [PCM-0064445], the inhibition at 10 µM is -24.9%.

Consider `CC(=O)NC[C@H]1CN(c2ccc(N3CCOCC3)c(F)c2)C(=O)O1` [PCM-0064450], for which the inhibition at 10 µM is -23.3%.

In the case of `Clc1ccc(C(c2ccccc2Cl)C(Cl)Cl)cc1` (centres unmarked) [PCM-0064460], the inhibition at 10 µM was determined as 19.5%.

For `N[C@@H]1CONC1=O` [PCM-0064462], the inhibition at 10 µM was -11.9%.

With `Oc1ccc(-c2nc(-c3ccc(F)cc3)c(-c3ccncc3)[nH]2)cc1` [PCM-0064463], the inhibition at 10 µM turned out to be 18.6%.

`NS(=O)(=O)c1cc2c(cc1Cl)NC=NS2(=O)=O` [PCM-0064466]: the inhibition at 10 µM was -10.1%.

`CN(C)CCCC1(c2ccc(F)cc2)OCc2cc(C#N)ccc21` (centres unmarked) [PCM-0064474]: the inhibition at 10 µM is -14.8%.

On to `CN(C)CCC[C@@]1(c2ccc(F)cc2)OCc2cc(C#N)ccc21` [PCM-0064474], for which the inhibition at 10 µM is -6.2%.

For `O=c1[nH]cnc2[nH]ncc12` [PCM-0064482], the inhibition at 10 µM stood at 18.7%.

Take `Oc1ncnc2[nH]ncc12` [PCM-0064482]: the inhibition at 10 µM was -5.5%.

With `Cn1cnc([N+](=O)[O-])c1Sc1ncnc2nc[nH]c12` [PCM-0064491], the inhibition at 10 µM is -4.8%.

Regarding `CN(C)CCC(c1ccc(Cl)cc1)c1ccccn1` (centres unmarked) [PCM-0064500], the inhibition at 10 µM was 6.9%.

In the case of `Clc1cccc(Cl)c1NC1=NCCN1` [PCM-0064514], the inhibition at 10 µM was -19.5%.

As for `CN(C)CCC=C1c2ccccc2CCc2ccccc21` [PCM-0064521], the inhibition at 10 µM is -22.6%.

For `Nc1ncn([C@@H]2O[C@H](CO)[C@@H](O)[C@H]2O)c(=O)n1` [PCM-0064526], the inhibition at 10 µM was -6.2%.

Take `COc1ccc(C(=O)N2CCCC2=O)cc1` [PCM-0064527]: the inhibition at 10 µM was -4.7%.

Regarding `Nc1c2c(nc3ccccc13)CCCC2` [PCM-0064528], the inhibition at 10 µM was -7.8%.

Regarding `Nc1nc2c(ncn2COCCO)c(=O)[nH]1` [PCM-0064530], the inhibition at 10 µM was -15.6%.

Consider `CC(C)NCC(O)COc1ccc(CCOCC2CC2)cc1` (centres unmarked) [PCM-0064542], for which the inhibition at 10 µM came to 21%.

With `CN1CCN(C2=Nc3cc(Cl)ccc3Nc3ccccc32)CC1` [PCM-0064549], the inhibition at 10 µM stood at 4.7%.

Turning to `CCCCc1oc2ccccc2c1C(=O)c1cc(I)c(OCCN(CC)CC)c(I)c1` [PCM-0064561], the inhibition at 10 µM was determined as 75.5%.

For the compound `NC(=O)c1cccc(N)c1` [PCM-0064562], the inhibition at 10 µM is -3.9%.

In the case of `CCC1(c2ccc(N)cc2)CCC(=O)NC1=O` (centres unmarked) [PCM-0064565], the inhibition at 10 µM was -3.4%.

`CCc1ccc(/C=C2/SC(=S)NC2=O)cc1` [PCM-0064568]: the inhibition at 10 µM amounted to 46.2%.

Consider `c1cnc2cc3c(cc2n1)[C@@H]1CNC[C@H]3C1` [PCM-0064570], for which the inhibition at 10 µM was -31.5%.

Turning to `CN(C)CCC(c1ccc(Br)cc1)c1ccccn1` (centres unmarked) [PCM-0064576], the inhibition at 10 µM is -19.3%.

Turning to `COc1ccccc1N1CCN(CCN2C(=O)CC3(CCCC3)CC2=O)CC1` [PCM-0064586], the inhibition at 10 µM was -3.1%.

Consider `O=C(O)/C=C/c1ccc(O)c(O)c1` [PCM-0064590], for which the inhibition at 10 µM was -21.8%.

As for `O=C(O)/C=C/C(=O)O` [PCM-0064603], the inhibition at 10 µM is -7.7%.

For `NC(=O)N1c2ccccc2C=Cc2ccccc21` [PCM-0064618], the inhibition at 10 µM amounted to 9.3%.

On to `O=C1CCc2cc(OCCCCc3nnnn3C3CCCCC3)ccc2N1` [PCM-0064629], for which the inhibition at 10 µM was -19.5%.

Take `Oc1cc(O)c2c(c1)O[C@H](c1ccc(O)c(O)c1)[C@@H](O)C2` [PCM-0064631]: the inhibition at 10 µM turned out to be 37.4%.

On to `O=c1cc(-c2ccc(O)cc2)oc2cc(O)cc(O)c12` [PCM-0064643], for which the inhibition at 10 µM worked out at 63.8%.

With `C[C@H](CS)C(=O)N1CCC[C@H]1C(=O)O` [PCM-0064658], the inhibition at 10 µM is -2.3%.

As for `COc1cc2nc(N(C)CCCNC(=O)C3CCCO3)nc(N)c2cc1OC` (centres unmarked) [PCM-0064661], the inhibition at 10 µM worked out at 1.6%.

Consider `CC(C[N+](C)(C)C)OC(N)=O` (centres unmarked) [PCM-0064662], for which the inhibition at 10 µM was -7%.

As for `CC(C)c1c(C(=O)Nc2ccccc2)c(-c2ccccc2)c(-c2ccc(F)cc2)n1CC[C@@H](O)C[C@@H](O)CC(=O)O` [PCM-0064680], the inhibition at 10 µM stood at 10.1%.

With `NC(N)=NCCCC(N)C(=O)O` (centres unmarked) [PCM-0064685], the inhibition at 10 µM is -17%.

For `O=C1NC(=O)/C(=C/c2ccc(-c3ccc(F)cc3O)o2)S1` [PCM-0064686], the inhibition at 10 µM stood at 82.8%.

On to `NC(CO)C(=O)NNCc1ccc(O)c(O)c1O` (centres unmarked) [PCM-0064697], for which the inhibition at 10 µM is -14%.

With `Clc1ccccc1C(c1ccccc1)(c1ccccc1)n1ccnc1` [PCM-0064702], the inhibition at 10 µM was -2.3%.

Turning to `Cc1cc(Cl)ccc1OCCCC(=O)NO` [PCM-0064710], the inhibition at 10 µM is 7%.

With `CC#C[C@]1(O)CC[C@H]2[C@@H]3CCC4=CC(=O)CCC4=C3[C@@H](c3ccc(N(C)C)cc3)C[C@@]21C` [PCM-0064713], the inhibition at 10 µM worked out at 38.6%.

On to `CCOC(=O)C1=C(C)NC(C)=C(C(=O)OC)C1c1cccc([N+](=O)[O-])c1` (centres unmarked) [PCM-0064714], for which the inhibition at 10 µM is -28%.

Regarding `COC(=O)C1=C(C)NC(C)=C(C(=O)OCCN(C)Cc2ccccc2)C1c1cccc([N+](=O)[O-])c1` (centres unmarked) [PCM-0064729], the inhibition at 10 µM was determined as 47.5%.

On to `CC/C(=C(\c1ccccc1)c1ccc(OCCN(C)C)cc1)c1ccccc1` [PCM-0064738], for which the inhibition at 10 µM amounted to 7.6%.

For the compound `CC(C)(C)NCC(O)c1cc(O)cc(O)c1` (centres unmarked) [PCM-0064743], the inhibition at 10 µM was -26.4%.

For the compound `COc1cc2nc(N3CCCN(C)CC3)nc(NC3CCN(Cc4ccccc4)CC3)c2cc1OC` [PCM-0064746], the inhibition at 10 µM is -0.7%.

For the compound `COCCOC(=O)C1=C(C)NC(C)=C(C(=O)OC(C)C)C1c1cccc([N+](=O)[O-])c1` (centres unmarked) [PCM-0064753], the inhibition at 10 µM worked out at 5.4%.

In the case of `CNCCCC12CCC(c3ccccc31)c1ccccc12` [PCM-0064754], the inhibition at 10 µM stood at 11.7%.

Consider `CC(C)(C)C(=O)Oc1ccc(S(=O)(=O)Nc2ccccc2C(=O)NCC(=O)O)cc1` [PCM-0064760], for which the inhibition at 10 µM was found to be 11.7%.

For the compound `CC(=O)[C@H]1CC[C@H]2[C@@H]3CCC4=CC(=O)CC[C@]4(C)[C@H]3CC[C@]12C` [PCM-0064761], the inhibition at 10 µM is -7.8%.

`CC(C)NCC(O)COc1cccc2ccccc12` (centres unmarked) [PCM-0064763]: the inhibition at 10 µM is -12.5%.

As for `COC(=O)C1=C(C)NC(C)=C(C(=O)OC)C1c1ccccc1[N+](=O)[O-]` [PCM-0064767], the inhibition at 10 µM was 14%.

For `CN1C(C(=O)Nc2ccccn2)=C(O)c2ccccc2S1(=O)=O` [PCM-0064770], the inhibition at 10 µM came to 9%.

For the compound `CCCCNc1ccc(C(=O)OCCN(C)C)cc1` [PCM-0064772], the inhibition at 10 µM worked out at 10.9%.

Regarding `CCN1CCCC1CNC(=O)c1cc(S(=O)(=O)CC)c(N)cc1OC` (centres unmarked) [PCM-0064775], the inhibition at 10 µM worked out at 0.8%.

With `NCCS(=O)(=O)O` [PCM-0064776], the inhibition at 10 µM was -6%.

With `c1ccc2c(c1)CCCC2C1=NCCN1` (centres unmarked) [PCM-0064782], the inhibition at 10 µM is -11%.

For the compound `N#CC(=C(/N)Sc1ccccc1N)/C(C#N)=C(\N)Sc1ccccc1N` [PCM-0064783], the inhibition at 10 µM is -4.1%.

Usually inhibition stands for the change of the read-out against control, counted positive when it falls.
